Common to all, as to format: in vivo
Series [1] concerns Diamond Back Moth (Plutella xylostella). Description: Diamond back moth leaf-dip test on Chinese cabbage. To be noted: read-out: mortality in comparison with untreated controls. The protocol:
(§1) If not otherwise specified the test solutions were prepared as follow:
(§2) The active compound was dissolved at the desired concentration in a mixture of 1:1 (vol:vol) distilled water:acteon. The test solution was prepared the day it was used and in general at concentrations of […] (wt/vol).
Leaves of Chinese cabbage were dipped in test solution and air-dried. Treated leaves were placed in petri dished lined with moist filter paper. Mortality was recorded 24, 72, and 120 hours after treatment.

Series [2] relates to Mediterranean Fruitfly (Ceratitis capitata). As to the kind of experiment: Mediterranean fruitfly microtiter plate diet test. Particulars: 120 h, read-out: mortality in comparison with untreated controls. The protocol: For evaluating control of Mediterranean fruitfly (Ceratitis capitata) the test unit consisted of microtiter plates containing an insect diet and 50-80 C. capitata eggs.
The compounds were formulated using a solution containing 75% v/v water and 25% v/v DMSO. Different concentrations of formulated compounds were sprayed onto the insect diet at 5 μl, using a custom built micro atomizer, at two replications. After application, microtiter plates were incubated at about 28±1° C. and about 80±5% relative humidity for 5 days. Egg and larval mortality was then visually assessed.

For series [3], the system named is Southern Armyworm (Spodoptera eridania). Description: Southern armyworm spray test on lima bean plants. To be noted: 96 h, read-out: mortality in comparison with untreated controls. The protocol:
The active compounds were formulated in cyclohexanone as a 10,000 ppm solution supplied in tubes. The tubes were inserted into an automated electrostatic sprayer equipped with an atomizing nozzle and served as stock solutions for which lower dilutions are made in 50% acetone:50% water (v/v). A nonionic surfactant (Kinetic®) was included in the solution at a volume of 0.01% (v/v).
Lima bean plants (variety Sieva) were grown 2 plants to a pot and selected for treatment at the 1st true leaf stage. Test solutions were sprayed onto the foliage by an automated electrostatic plant sprayer equipped with an atomizing spray nozzle. The plants were dried in the sprayer fume hood and then removed from the sprayer. Each pot was placed into perforated plastic bags with a zip closure. About 10 to 11 armyworm larvae were placed into the bag and the bags zipped closed. Test plants were maintained in a growth room at about 25° C. and about 20-40% relative humidity for 4 days, avoiding direct exposure to fluorescent light (24 hour photoperiod) to prevent trapping of heat inside the bags. Mortality and reduced feeding were assessed 4 days after treatment, compared to untreated control plants.

For series [4], the system named is Tobacco Budworm (Heliothis virescens). As to the kind of experiment: Tobacco budworm microtiter plate diet test. Particulars: 120 h, read-out: mortality in comparison with untreated controls. The protocol: For evaluating control of tobacco budworm (Heliothis virescens) the test unit consisted of 96-well-microtiter plates containing an insect diet and 15-25 H. virescens eggs. The compounds were formulated using a solution containing 75% v/v water and 25% v/v DMSO. Different concentrations of formulated compounds were sprayed onto the insect diet at 10 μl, using a custom built micro atomizer, at two replications. After application, microtiter plates are incubated at about 28±1° C. and about 80±5% relative humidity for 5 days. Egg and larval mortality is then visually assessed.

In series [5] the test system is Boll Weevil (Anthonomus grandis). Description: Boll weevil microtiter plate diet test. Particulars: 120 h, read-out: mortality in comparison with untreated controls. Here is the method: For evaluating control of boll weevil (Anthonomus grandis) the test unit consisted of 24-well-microtiter plates containing an insect diet and 20-30 A. grandis eggs. The compounds were formulated using a solution containing 75% v/v water and 25% v/v DMSO. Different concentrations of formulated compounds were sprayed onto the insect diet at 20 μl, using a custom built micro atomizer, at two replications. After application, microtiter plates were incubated at about 23±1° C. and about 50±5% relative humidity for 5 days. Egg and larval mortality was then visually assessed.

Series [6] relates to Vetch Aphid (Megoura viciae). Description: Vetch aphid leaf disk microtiter plate test. To be noted: foliar, 120 h, read-out: mortality in comparison with untreated controls. Here is the method:
For evaluating control of vetch aphid (Megoura viciae) through contact or systemic means the test unit consisted of 24-well-microtiter plates containing broad bean leaf disks. The compounds were formulated using a solution containing 75% v/v water and 25% v/v DMSO. Different concentrations of formulated compounds were sprayed onto the leaf disks at 2.5 μl, using a custom built micro atomizer, at two replications. After application, the leaf disks were air-dried and 5-8 adult aphids were placed on the leaf disks inside the microtiter plate wells. The aphids were then allowed to suck on the treated leaf disks and incubated at about 23±1° C. and about 50±5% relative humidity for 5 days. Aphid mortality and fecundity was then visually assessed.

The subject of series [7] is Silverleaf Whitefly (Bemisia argentifolii). As to the kind of experiment: Silverleaf whitefly spray test on cotton plants. To be noted: 72 h, read-out: mortality in comparison with untreated controls. From the text:
The active compounds were formulated in cyclohexanone as a 10,000 ppm solution supplied in tubes. The tubes were inserted into an automated electrostatic sprayer equipped with an atomizing nozzle and served as stock solutions for which lower dilutions were made in 50% acetone:50% water (v/v). A nonionic surfactant (Kinetic®) was included in the solution at a volume of 0.01% (v/v).
Cotton plants at the cotyledon stage (one plant per pot) were sprayed by an automated electrostatic plant sprayer equipped with an atomizing spray nozzle. The plants were dried in the sprayer fume hood and then removed from the sprayer. Each pot was placed into a plastic cup and about 10 to 12 whitefly adults (approximately 3-5 days old) were introduced. The insects were collected using an aspirator and a nontoxic Tygon® tubing connected to a barrier pipette tip. The tip, containing the collected insects, was then gently inserted into the soil containing the treated plant, allowing insects to crawl out of the tip to reach the foliage for feeding. Cups were covered with a reusable screened lid. Test plants were maintained in a growth room at about 25° C. and about 20-40% relative humidity for 3 days, avoiding direct exposure to fluorescent light (24 hour photoperiod) to prevent trapping of heat inside the cup. Mortality was assessed 3 days after treatment, compared to untreated control plants.

The test system of series [8] is Cowpea Aphid (Aphis craccivora). Description: Cowpea aphid spray test on potted cowpea plants. To be noted: 500 ppm; population reduction assessed after 24, 72 and 120 hours. The protocol: as §1, §2
Potted cowpea plants colonized with approximately 100-150 aphids of various stages were sprayed after the pest population had been recorded. Population reduction was assessed after 24, 72, and 120 hours.

The test system of series [9] is Orchid Thrips (Dichromothrips corbetti). Description: Orchid thrips floral-immersion test. To be noted: 96 h, read-out: mortality in comparison with untreated controls. The protocol:
Dichromothrips corbetti adults used for bioassay were obtained from a colony maintained continuously under laboratory conditions. For testing purposes, the test compound was diluted to a concentration of 300 ppm (wt compound: vol diluent) in a 1:1 mixture of acetone:water (vol:vol), plus 0.01% vol/vol Kinetic® surfactant.
Thrips potency of each compound was evaluated by using a floral-immersion technique. Plastic petri dishes were used as test arenas. All petals of individual, intact orchid flowers were dipped into treatment solution and allowed to dry. Treated flowers were placed into individual petri dishes along with 10-15 adult thrips. The petri dishes were then covered with lids. All test arenas were held under continuous light and a temperature of about 28° C. for duration of the assay. After 4 days, the numbers of live thrips was counted on each flower, and along inner walls of each petri dish. The level of thrips mortality was extrapolated from pre-treatment thrips numbers.

SMILES strings stand for the structures.

On to `COC(=NO)c1ccc(C2=NOC(c3cc(Cl)cc(Cl)c3)(C(F)(F)F)C2)cc1C` (single isomer, unassigned) [Compound 1-30, 4-[5-(3,5-Dichloro-phenyl)-5-trifluoromethyl-4,5-dihydro-isoxazol-3-yl]-N-hydroxy-2-methyl-benzimidic acid methyl ester], for which the mortality at 300 ppm in series [1] and in series [3] was at least 75% each time. In addition, the mortality at 2500 ppm in series [2], in [4] and in series [5] was at least 75% throughout.

Turning to `COC(=NO)c1ccc(C2=NOC(c3cc(Cl)cc(Cl)c3)(C(F)(F)F)C2)cc1C` (single isomer, unassigned) [Compound 1-31, 4-[5-(3,5-Dichloro-phenyl)-5-trifluoromethyl-4,5-dihydro-isoxazol-3-yl]-N-hydroxy-2-methyl-benzimidic acid methyl ester], the mortality at 2500 ppm in series [6] is at least 75%.

As for `Cc1cc(C2=NOC(c3cc(Cl)cc(Cl)c3)(C(F)(F)F)C2)ccc1/C=N/OCC(=O)NCC(F)(F)F` (centres unmarked) [Compound 1-9, 2-[1-{4-[5-(3,5-Dichloro-phenyl)-5-trifluoromethyl-4,5-dihydro-isoxazol-3-yl]-2-methyl-phenyl}-meth-(E)-ylideneaminooxy]-N-(2,2,2-trifluoro-ethyl)-acetamide], the mortality at 300 ppm in series [1] and in [3] was at least 75% each time. Besides, the mortality at 2500 ppm in series [4] and in [5] was at least 75% throughout.

`Cc1cc(C2=NOC(c3cc(Cl)cc(Cl)c3)(C(F)(F)F)C2)ccc1/C=N/OCC(=O)O` (centres unmarked) [Compound 1-12, [1-{4-[5-(3,5-Dichloro-phenyl)-5-trifluoromethyl-4,5-dihydro-isoxazol-3-yl]-2-methyl-phenyl}-meth-(E)-ylideneaminooxy]-acetic acid]: the mortality at 300 ppm in series [7] was at least 75%. Also, the mortality at 2500 ppm in series [6] and in [4] was at least 75% in each case.

For the compound `Cc1cc(C2=NOC(c3cc(Cl)cc(Cl)c3)(C(F)(F)F)C2)ccc1/C=N/OCC(=O)OC(C)(C)C` (centres unmarked) [Compound 1-13, [1-{4-[5-(3,5-Dichloro-phenyl)-5-trifluoromethyl-4,5-dihydro-isoxazol-3-yl]-2-methyl-phenyl}-meth-(E)-ylideneaminooxy]-acetic acid tert-butyl ester], the mortality at 300 ppm in [1] and in series [3] was at least 75% throughout. Further, in series [4], the mortality at 2500 ppm is at least 75%.

Regarding `Cc1cc(C2=NOC(c3cc(Cl)cc(Cl)c3)(C(F)(F)F)C2)ccc1/C=N/OCC(=O)N1CCOCC1` (centres unmarked) [Compound 1-16], the “mortality in comparison with untreated controls” value in series [8] is “at least 75%”.

Regarding `CC(=NO)c1ccc(C2=NOC(c3cc(Cl)cc(Cl)c3)(C(F)(F)F)C2)cc1C` (centres unmarked) [Compound 1-17, 1-{4-[5-(3,5-Dichloro-phenyl)-5-trifluoromethyl-4,5-dihydro-isoxazol-3-yl]-2-methyl-phenyl}-ethanone oxime], the mortality at 300 ppm in [1] and in series [9] was at least 75% throughout. The mortality at 2500 ppm in series [4] and in [5] was at least 75% throughout.

As for `Cc1cc(C2=NOC(c3cc(Cl)cc(Cl)c3)(C(F)(F)F)C2)ccc1/C=N/NC(=O)c1ccccn1` (centres unmarked) [Compound 1-45, Pyridine-2-carboxylic acid [1-{4-[5-(3,5-dichloro-phenyl)-5-trifluoromethyl-4,5-dihydro-isoxazol-3-yl]-2-methyl-phenyl}-meth-(E)-ylidene]-hydrazide], the mortality at 2500 ppm in [4] and in [5] was at least 75% in each case.

With `Cc1cc(C2=NOC(c3cc(Cl)cc(Cl)c3)(C(F)(F)F)C2)ccc1C(CC(C)C)=NO` (centres unmarked) [Compound 1-55, 1-{4-[5-(3,5-Dichloro-phenyl)-5-trifluoromethyl-4,5-dihydro-isoxazol-3-yl]-2-methyl-phenyl}-3-methyl-butan-1-one oxime], the mortality at 300 ppm in [1] is at least 75%. For the same compound, the mortality at 2500 ppm in series [4] and in [5] was at least 75% throughout.

The term mortality denotes the share of the test organisms that died.

Values taken from patent US8722673B2, “Imine compounds for combating invertebrate pests” (BASF SE, priority 2008, dated 2014).
